The text below walks through data of patent US9181305B2, “Exendin-4 peptide analogues” (SANOFI, priority 2012, dated 2015).

*1 amine or outer side, *2 acyl side, *3 side chain or, on linkers, in order; H or OH if unused. Where a SMILES comes first, the peptide text is derived from it. Side-chain parts run from the residue outwards. [ ]: non-standard residue; d: D form. The star is where a group is joined. γGlu = O=C(O)[C@H](CCC(=O)[*:2])N[*:1]; Palmitoyl = CCCCCCCCCCCCCCCC(=O)*; Aib = CC(C)(N)C(=O)O

What is called EC50 is the midpoint of the concentration-response curve. Higher therefore signals a need for much substance.

T1 sequence (P43220 24-463): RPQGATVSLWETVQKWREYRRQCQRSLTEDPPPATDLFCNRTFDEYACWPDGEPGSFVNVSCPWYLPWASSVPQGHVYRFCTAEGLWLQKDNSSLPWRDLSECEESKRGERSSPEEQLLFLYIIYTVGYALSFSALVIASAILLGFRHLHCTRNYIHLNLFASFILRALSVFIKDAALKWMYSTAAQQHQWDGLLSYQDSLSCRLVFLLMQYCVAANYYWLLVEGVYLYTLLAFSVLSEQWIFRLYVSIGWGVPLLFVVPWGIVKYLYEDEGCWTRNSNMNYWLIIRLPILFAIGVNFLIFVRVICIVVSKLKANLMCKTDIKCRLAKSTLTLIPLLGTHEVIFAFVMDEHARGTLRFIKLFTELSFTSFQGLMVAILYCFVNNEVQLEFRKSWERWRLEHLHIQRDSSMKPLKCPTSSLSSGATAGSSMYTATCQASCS

The assay has as its target T1, human GLP-1 receptor (hGLP-1 R) (Homo sapiens, UniProt P43220).
T1 construct: expressed in transfected cells; host or cells: HEK-293
The experiment in a line: cAMP response (HTRF) of HEK-293 cells stably expressing human GLP-1 receptor. The class given is cell-based. As to conditions: HEK-293 cells expressing human GLP-1 receptor, cAMP formation. The procedure: cAMP content of cells was determined using a kit from Cisbio Corp. (cat. no. 62AM4PEC) based on HTRF (Homogenous Time Resolved Fluorescence). For preparation, cells were split into T175 culture flasks and grown overnight to near confluency in medium (DMEM/10% FBS). Medium was then removed and cells washed with PBS lacking calcium and magnesium, followed by proteinase treatment with accutase (Sigma-Aldrich cat. no. A6964). Detached cells were washed and resuspended in assay buffer (1×HBSS; 20 mM HEPES, 0.1% BSA, 2 mM IBMX) and cellular density determined. […] For measurement, 25 μl of test compound in assay buffer was added to the wells, followed by incubation for 30 minutes at room temperature.
Compound `CCCCCCCCCCCCCCCC(=O)N[C@@H](CCC(=O)NCCCC[C@H](NC(=O)[C@@H]1CCCN1C(=O)[C@@H]1CCCN1C(=O)[C@@H]1CCCN1C(=O)[C@H](C)NC(=O)CNC(=O)[C@H](CO)NC(=O)[C@H](CO)NC(=O)[C@@H]1CCCN1C(=O)CNC(=O)CNC(=O)[C@H](CC(N)=O)NC(=O)[C@H](CCCCN)NC(=O)[C@H](CC(C)C)NC(=O)[C@H](Cc1c[nH]c2ccccc12)NC(=O)[C@H](CCC(=O)O)NC(=O)[C@@H](NC(=O)[C@H](Cc1ccccc1)NC(=O)[C@H](CC(=O)O)NC(=O)[C@H](CCC(N)=O)NC(=O)[C@H](C)NC(=O)[C@H](CCCNC(=N)N)NC(=O)[C@H](CCCNC(=N)N)NC(=O)[C@H](CO)NC(=O)[C@H](CC(=O)O)NC(=O)[C@H](CCSC)NC(=O)[C@H](CCC(N)=O)NC(=O)[C@H](CCCCN)NC(=O)[C@H](CO)NC(=O)[C@H](CC(C)C)NC(=O)[C@H](CC(=O)O)NC(=O)[C@H](CO)NC(=O)[C@@H](NC(=O)[C@H](Cc1ccccc1)NC(=O)[C@@H](NC(=O)CNC(=O)[C@H](CCC(N)=O)NC(=O)[C@H](CO)NC(=O)[C@@H](N)Cc1c[nH]cn1)[C@@H](C)O)[C@@H](C)O)[C@@H](C)CC)C(N)=O)C(=O)O` [(6)] yielded a concentration for a half-maximal effect (EC50) of 3.1 pM. With `CC[C@H](C)[C@H](NC(=O)[C@H](Cc1ccccc1)NC(=O)[C@H](CC(=O)O)NC(=O)[C@H](CCCCN)NC(=O)[C@H](C)NC(=O)[C@H](CCCNC(=N)N)NC(=O)[C@H](CCCNC(=N)N)NC(=O)[C@H](CCC(=O)O)NC(=O)[C@H](CCC(=O)O)NC(=O)[C@H](CCSC)NC(=O)[C@H](CCC(N)=O)NC(=O)[C@H](CCCCN)NC(=O)[C@H](CO)NC(=O)[C@H](CC(C)C)NC(=O)[C@H](CC(=O)O)NC(=O)[C@H](CO)NC(=O)[C@@H](NC(=O)[C@H](Cc1ccccc1)NC(=O)[C@@H](NC(=O)CNC(=O)[C@H](CCC(N)=O)NC(=O)[C@H](CO)NC(=O)[C@@H](N)Cc1c[nH]cn1)[C@@H](C)O)[C@@H](C)O)C(=O)N[C@@H](CCC(=O)O)C(=O)N[C@@H](Cc1c[nH]c2ccccc12)C(=O)N[C@@H](CC(C)C)C(=O)N[C@@H](CCCCN)C(=O)N[C@@H](CC(N)=O)C(=O)NCC(=O)NCC(=O)N1CCC[C@H]1C(=O)N[C@@H](CO)C(=O)N[C@@H](CO)C(=O)NCC(=O)N[C@@H](C)C(=O)N1CCC[C@H]1C(=O)N1CCC[C@H]1C(=O)N1CCC[C@H]1C(=O)N[C@@H](CO)C(N)=O` [(16)] (H-HSQGTFTSDLSKQMEERRAKDFIEWLKNGGPSSGAPPPS-NH2) the figure was 7.6 pM; with `CCCCCCCCCCCCCCCC(=O)NCCCC[C@H](NC(=O)[C@H](CO)NC(=O)[C@@H]1CCCN1C(=O)[C@@H]1CCCN1C(=O)[C@@H]1CCCN1C(=O)[C@H](C)NC(=O)CNC(=O)[C@H](CO)NC(=O)[C@H](CO)NC(=O)[C@@H]1CCCN1C(=O)CNC(=O)CNC(=O)[C@H](CC(N)=O)NC(=O)[C@H](CCCCN)NC(=O)[C@H](CC(C)C)NC(=O)[C@H](Cc1c[nH]c2ccccc12)NC(=O)[C@H](CCC(=O)O)NC(=O)[C@@H](NC(=O)[C@H](Cc1ccccc1)NC(=O)[C@H](CC(=O)O)NC(=O)[C@H](CCC(N)=O)NC(=O)[C@H](C)NC(=O)[C@H](CCCNC(=N)N)NC(=O)[C@H](CCCNC(=N)N)NC(=O)[C@H](CO)NC(=O)[C@H](CC(=O)O)NC(=O)[C@H](CCSC)NC(=O)[C@H](CCC(N)=O)NC(=O)[C@H](CCCCN)NC(=O)[C@H](CO)NC(=O)[C@H](CC(C)C)NC(=O)[C@H](CC(=O)O)NC(=O)[C@H](CO)NC(=O)[C@@H](NC(=O)[C@H](Cc1ccccc1)NC(=O)[C@@H](NC(=O)CNC(=O)[C@H](CCC(N)=O)NC(=O)[C@@H](CO)NC(=O)[C@@H](N)Cc1c[nH]cn1)[C@@H](C)O)[C@@H](C)O)[C@@H](C)CC)C(N)=O` [(26)], 9.7 pM. With `CC[C@H](C)[C@H](NC(=O)[C@H](Cc1ccccc1)NC(=O)[C@H](CC(=O)O)NC(=O)[C@H](CCC(N)=O)NC(=O)[C@H](C)NC(=O)[C@H](CCCNC(=N)N)NC(=O)[C@H](CCCNC(=N)N)NC(=O)[C@H](CO)NC(=O)[C@H](CC(=O)O)NC(=O)[C@H](CCSC)NC(=O)[C@H](CCC(N)=O)NC(=O)[C@H](CCCCN)NC(=O)[C@H](CO)NC(=O)[C@H](CC(C)C)NC(=O)[C@H](CC(=O)O)NC(=O)[C@H](CO)NC(=O)[C@@H](NC(=O)[C@H](Cc1ccccc1)NC(=O)[C@@H](NC(=O)CNC(=O)[C@H](CCC(N)=O)NC(=O)[C@H](C)NC(=O)[C@@H](N)Cc1c[nH]cn1)[C@@H](C)O)[C@@H](C)O)C(=O)N[C@@H](CCC(=O)O)C(=O)N[C@@H](Cc1c[nH]c2ccccc12)C(=O)N[C@@H](CC(C)C)C(=O)N[C@@H](CCCCN)C(=O)N[C@@H](CC(N)=O)C(=O)NCC(=O)NCC(=O)N1CCC[C@H]1C(=O)N[C@@H](CO)C(=O)N[C@@H](CO)C(=O)NCC(=O)N[C@@H](C)C(=O)N1CCC[C@H]1C(=O)N1CCC[C@H]1C(=O)N1CCC[C@H]1C(=O)N[C@@H](CO)C(N)=O` [(39)] (H-HAQGTFTSDLSKQMDSRRAQDFIEWLKNGGPSSGAPPPS-NH2) the figure was 4.6 pM.

In turn, `CCCCCCCCCCCCCCCC(=O)N[C@@H](CCC(=O)NCCCC[C@H](NC(=O)[C@@H]1CCCN1C(=O)[C@@H]1CCCN1C(=O)[C@@H]1CCCN1C(=O)[C@H](C)NC(=O)CNC(=O)[C@H](CO)NC(=O)[C@H](CO)NC(=O)[C@@H]1CCCN1C(=O)CNC(=O)CNC(=O)[C@H](CC(N)=O)NC(=O)[C@H](CCCCN)NC(=O)[C@H](CC(C)C)NC(=O)[C@H](Cc1c[nH]c2ccccc12)NC(=O)[C@H](CCC(=O)O)NC(=O)[C@@H](NC(=O)[C@H](Cc1ccccc1)NC(=O)[C@H](CC(=O)O)NC(=O)[C@H](CCC(N)=O)NC(=O)[C@H](C)NC(=O)[C@H](CCCNC(=N)N)NC(=O)[C@H](CCCNC(=N)N)NC(=O)[C@H](CO)NC(=O)[C@H](CC(=O)O)NC(=O)[C@H](CCSC)NC(=O)[C@H](CCC(N)=O)NC(=O)[C@H](CCCCN)NC(=O)[C@H](CO)NC(=O)[C@H](CC(C)C)NC(=O)[C@H](CC(=O)O)NC(=O)[C@H](CO)NC(=O)[C@@H](NC(=O)[C@H](Cc1ccccc1)NC(=O)[C@@H](NC(=O)CNC(=O)[C@H](CCC(N)=O)NC(=O)[C@@H](CO)NC(=O)[C@@H](N)Cc1c[nH]cn1)[C@@H](C)O)[C@@H](C)O)[C@@H](C)CC)C(N)=O)C(=O)O` [(51)] showed an EC50 of 5.8 pM. The compound `CCCCCCCCCCCCCCCC(=O)N[C@@H](CCC(=O)NCCCC[C@H](NC(=O)[C@@H]1CCCN1C(=O)[C@@H]1CCCN1C(=O)[C@@H]1CCCN1C(=O)[C@H](C)NC(=O)CNC(=O)[C@H](CO)NC(=O)[C@H](CO)NC(=O)[C@@H]1CCCN1C(=O)CNC(=O)CNC(=O)[C@H](CC(N)=O)NC(=O)[C@H](CCCCN)NC(=O)[C@H](CC(C)C)NC(=O)[C@H](Cc1c[nH]c2ccccc12)NC(=O)[C@H](CCC(=O)O)NC(=O)[C@@H](NC(=O)[C@H](Cc1ccccc1)NC(=O)[C@H](CC(=O)O)NC(=O)[C@H](CCC(N)=O)NC(=O)[C@H](C)NC(=O)[C@H](CCCNC(=N)N)NC(=O)[C@H](CCCNC(=N)N)NC(=O)[C@H](CO)NC(=O)[C@H](CC(=O)O)NC(=O)[C@H](CCSC)NC(=O)[C@H](CCC(N)=O)NC(=O)[C@H](CCCCN)NC(=O)[C@H](CO)NC(=O)[C@H](CC(C)C)NC(=O)[C@H](CC(=O)O)NC(=O)[C@H](CO)NC(=O)[C@@H](NC(=O)[C@H](Cc1ccccc1)NC(=O)[C@@H](NC(=O)CNC(=O)[C@H](CCC(N)=O)NC(=O)C(C)(C)NC(=O)[C@@H](N)Cc1c[nH]cn1)[C@@H](C)O)[C@@H](C)O)[C@@H](C)CC)C(N)=O)C(=O)O` [(52)] (H-H[Aib]QGTFTSDLSKQMDSRRAQDFIEWLKNGGPSSGAPPPK([γGlu-Palmitoyl])-NH2) displayed an EC50 of 4.1 pM. This EC50 and that of the compound before are within 1.5-fold of each other. With `CCCCCCCCCCCCCCCC(=O)N[C@@H](CCC(=O)NCCCC[C@H](NC(=O)[C@H](CO)NC(=O)[C@@H]1CCCN1C(=O)[C@@H]1CCCN1C(=O)[C@@H]1CCCN1C(=O)[C@H](C)NC(=O)CNC(=O)[C@H](CO)NC(=O)[C@H](CO)NC(=O)[C@@H]1CCCN1C(=O)CNC(=O)CNC(=O)[C@H](CC(N)=O)NC(=O)[C@H](CCCCN)NC(=O)[C@H](CC(C)C)NC(=O)[C@H](Cc1c[nH]c2ccccc12)NC(=O)[C@H](CCC(=O)O)NC(=O)[C@@H](NC(=O)[C@H](Cc1ccccc1)NC(=O)[C@H](CC(=O)O)NC(=O)[C@H](CCC(N)=O)NC(=O)[C@H](C)NC(=O)[C@H](CCCNC(=N)N)NC(=O)[C@H](CCCNC(=N)N)NC(=O)[C@H](CO)NC(=O)[C@H](CC(=O)O)NC(=O)[C@H](CCSC)NC(=O)[C@H](CCC(N)=O)NC(=O)[C@H](CCCCN)NC(=O)[C@H](CO)NC(=O)[C@H](CC(C)C)NC(=O)[C@H](CC(=O)O)NC(=O)[C@H](CO)NC(=O)[C@@H](NC(=O)[C@H](Cc1ccccc1)NC(=O)[C@@H](NC(=O)CNC(=O)[C@H](CCC(N)=O)NC(=O)C(C)(C)NC(=O)[C@@H](N)Cc1c[nH]cn1)[C@@H](C)O)[C@@H](C)O)[C@@H](C)CC)C(N)=O)C(=O)O` [(59)] (H-H[Aib]QGTFTSDLSKQMDSRRAQDFIEWLKNGGPSSGAPPPSK([γGlu-Palmitoyl])-NH2) the figure was 2.9 pM.
